The test system of test [1] is collagen-induced arthritis. Kind of test: Body weight change in collagen-induced arthritis (CIA) (Experiment 2). Particulars: PEA 30 mg/kg; for Pr > F: 2x2 factorial analysis on weight change, ibuprofen 5 mg/kg, PEA*IBU = interaction (synergy). The class given is in vivo, Female Lewis rats. The protocol: (§1) Rheumatoid arthritis is a disease characterized by inflammatory pain, in which the involved joints present swelling, stiffness and often erosive processes. Female Lewis rats were maintained on a 12/12 hour light/dark cycle, at constant temperature and humidity and acclimated for 1 week, with free access to water and standard diet. […] Arthritis score, change in paw volume (mL), and change in body weight (g) were measured as indicators of inflammatory pain. Arthritis severity was measured every other day starting on day 25, using the following score: 0 = no sign of arthritis; 1 = swelling and/or redness of the paw or toe; 2 = two joints involved; 3 = more than two joints involved; and 4 = severe arthritis of the entire paw and toes. The arthritis index for each subject was calculated by adding the four scores of the individual paws. The change in paw volume compared to day 21 was assessed every two days by plethysmometry (Ugo Basile) starting from day 25. The change in weight was measured for each animal on day 21 and then every two days starting from day 25.
(§2) The chosen inflammatory pain indicators were analyzed via Generalized Linear Model (GLM) followed by post-hoc analysis based on Tukey-Kramer correction for multiple comparisons. […] All analyzes were performed using SAS software, version 9.4 (SAS Institute, Cary, NC, USA). P value < 0.05 was considered significant.

Test [2] deals with inflammatory pain induced by CFA. Kind of test: Incapacitance test (spontaneous pain), CFA-induced inflammatory pain, chronic (14 days) oral treatment (Experiment 4). It counts as in vivo, male Sprague-Dawley rats. The conditions noted are these: 2x2 ANOVA on percentage inhibition of spontaneous pain, interaction line = synergy. The method, then:
The inflammatory pain model was induced by injecting Complete Freund's Adjuvant (CFA, Sigma-Aldrich) into the tibiotarsal joint of male Sprague-Dawley rats (Charles River), housed in 26x41 cm cages at the Animal Husbandry Centre. Laboratory Animals (Ce.S.A.L.) of the University of Florence with a 12-hour circadian cycle, water and food (standard diet) "ad libitum", temperature of 23±1°C. Intra-articular injection occurred according to the method described by Butler et al. (Pain 48:73-81,1992) after light anesthesia with 2% isoflurane. The skin surrounding the injection site was sterilized with 75% ethyl alcohol. Then a 28-gauge needle was inserted into the joint cavity, through which a volume of 50 µl of CFA was injected. The animals were then divided into the following treatment groups (N = 8): • Sham (control, a volume of physiological solution equal to that used for CFA animals was injected into the tibiotarsal joint) • Vehicle (CMC 1%) • Diclofenac (3 mg/kg) • Diclofenac (30 mg/kg) • PEA (10 mg/kg) • PEA-OXA (10 mg/kg) [formula] [formula] [formula] [formula]
The tested molecules - used both individually and in combination - were suspended in 1% CMC and administered orally daily from day 1 to day 14 (chronic treatment). […] Behavioral tests were conducted 24 hours after the last administration, in order to highlight the effect of repeated treatment on joint pain. Inflammatory pain induced by CFA injection was measured by paw pressure test. […] The nociceptive threshold has been expressed as the force to which the animal reacts by retracting its paw or vocalizing (Leighton et al., Br J Pharmacol 93:553-560,1988). An analgesimeter (Ugo Basile, Varese) was used for this purpose, which allows the mechanical hyperalgesia to be quantified. Furthermore, spontaneous pain was assessed using the incapacitance test, which evaluates variations in postural balance through the "Incapacitance" device (Linton Instrumentation, UK), a scale which simultaneously, but separately, measures the force imparted by each paw (Fernandes et al., Arthritis Res Ther. 2016 Jan 11;18:7).
Briefly, rats were trained to stand on their hind legs in a box with an inclined plane (65° to the horizontal), placed above the "Incapacity" apparatus. […] The results were expressed in terms of "painful potency", defined as percentage inhibition (mean ± SEM) of inflammatory pain induced by CFA and calculated according to the formula: 100* (treatm-VEIC)/(CTRL-VEIC)."
The effect on pain was analyzed using Generalized Linear Model (GLM) followed by post-hoc analysis based on Tukey-Kramer correction for multiple comparisons. The results of the analyses were expressed as mean ± standard error of the mean (SEM). […]

Test [3] has as its system collagen-induced arthritis. The test can be described thus: Arthritis severity score in collagen-induced arthritis (CIA) (Experiment 2). It counts as in vivo, Female Lewis rats. The conditions noted are these: PEA 30 mg/kg; for Pr > F: 2x2 factor analysis on severity of arthritis, ibuprofen 5 mg/kg, PEA*IBU = interaction (synergy). The protocol: as §1, §2

The record followed here is patent EP4628074A1, “N-PALMITOYLETHANOLAMIDE FOR USE IN COMBINATION WITH A NON-STEROIDAL ANTI-INFLAMMATORY DRUG IN THE TREATMENT OF INFLAMMATORY PAIN” (priority 2024, dated 2025).

Consider `CCCCCCCCCCCCCCCC(=O)NCCO` [PEA, N-palmitoylethanolamide], for which the “Pr > F” value in test [1] (6° giorno di trattamento (G31)) is listed as <0,0001; in test [1] (8° giorno di trattamento (G33)) it was <0,0001; in test [1] (10° giorno di trattamento (G35)) it was <0,0001; in test [2] (PEA 5 mg/kg + diclofenac 3 mg/kg compared with diclofenac 3 mg/kg and PEA 10 mg/kg alone), <0,0001; in test [2] (PEA 10 mg/kg, diclofenac 3 mg/kg), 0,0084; in test [3] (Giorno 33), <0,0001. For the same compound, the “Pr > F” value in test [3] (Giorno 35) is <0,0001. In addition, the “effect on weight reduction induced by arthritis pain” value in test [1] (from the 4th day of treatment (day 29) for the entire observation period, low-dose ibuprofen 5 mg/kg, high-dose IBU 30 mg/kg) is “neither PEA nor low-dose ibuprofen exerted any effect”. In test [3] (day 31 up to end of study (day 35), oral from day 25, low-dose IBU 5 mg/kg, high-dose IBU 30 mg/kg), the “effect on arthritis score” value is “had no effect”.
